From ChEMBL document CHEMBL4879554, “Data for DCP probe GNE-2256” (2021)

Tests used:
[1] = target: 5-hydroxytryptamine receptor 1E (Homo sapiens) (UniProt P28566); details: Compound concentration 10.0 uM
[2] = target: Mitogen-activated protein kinase kinase kinase kinase 5 (Homo sapiens) (UniProt Q9Y4K4); test: KHS1 Kinase panel; details: Compound concentration 1.0 uM
[3] = target: Ephrin type-B receptor 3 (Homo sapiens) (UniProt P54753); test: EphB3 Kinase panel; details: Compound concentration 1.0 uM
[4] = target: Serine/threonine-protein kinase Sgk3 (Homo sapiens) (UniProt Q96BR1); test: SGK3 Kinase panel; details: Compound concentration 1.0 uM
[5] = target: Mitogen-activated protein kinase 11 (Homo sapiens) (UniProt Q15759); test: p38_beta Kinase panel; details: Compound concentration 1.0 uM
[6] = target: Interleukin-1 receptor-associated kinase 1 (Homo sapiens) (UniProt P51617); test: IRAK1 Kinase panel; details: Compound concentration 1.0 uM
[7] = target: Alpha-2B adrenergic receptor (Homo sapiens) (UniProt P18089); details: Compound concentration 10.0 uM
[8] = target: Maternal embryonic leucine zipper kinase (Homo sapiens) (UniProt Q14680); test: MELK Kinase panel; details: Compound concentration 1.0 uM
[9] = target: Protein kinase C delta type (Homo sapiens) (UniProt Q05655); test: PKC_delta Kinase panel; details: Compound concentration 1.0 uM
[10] = target: NUAK family SNF1-like kinase 1 (Homo sapiens) (UniProt O60285); test: ARK5 Kinase panel; details: Compound concentration 1.0 uM
[11] = target: Tyrosine-protein kinase Tec (Homo sapiens) (UniProt P42680); test: TEC Kinase panel; details: Compound concentration 1.0 uM
[12] = target: Protein kinase C beta type (Homo sapiens) (UniProt P05771); test: PKC_beta1 Kinase panel; details: Compound concentration 1.0 uM
[13] = target: BDNF/NT-3 growth factors receptor (Homo sapiens) (UniProt Q16620); test: TrkB Kinase panel; details: Compound concentration 1.0 uM
[14] = target: Serine/threonine-protein kinase Sgk2 (Homo sapiens) (UniProt Q9HBY8); test: SGK2 Kinase panel; details: Compound concentration 1.0 uM
[15] = target: Serine/threonine-protein kinase Sgk1 (Homo sapiens) (UniProt O00141); test: SGK1 Kinase panel; details: Compound concentration 1.0 uM
[16] = target: Serine/threonine-protein kinase PLK1 (Homo sapiens) (UniProt P53350); test: PLK1 Kinase panel; details: Compound concentration 1.0 uM
[17] = target: Leucine-rich repeat serine/threonine-protein kinase 2 (Homo sapiens) (UniProt Q5S007); test: LRRK2 Kinase panel; details: Compound concentration 1.0 uM
[18] = target: Insulin receptor (Homo sapiens) (UniProt P06213); test: InsR Kinase panel; details: Compound concentration 1.0 uM
[19] = target: 5-hydroxytryptamine receptor 2A (Homo sapiens) (UniProt P28223); details: Compound concentration 10.0 uM
[20] = target: Sodium-dependent dopamine transporter (Homo sapiens) (UniProt Q01959); details: Compound concentration 10.0 uM
[21] = target: Mitogen-activated protein kinase kinase kinase kinase 4 (Homo sapiens, UniProt O95819); test: MAP4K4 Kinase panel
[22] = species on record: Homo sapiens; test: (§1) TAK1-TAB1 Kinase panel; details: Compound concentration 1.0 uM
[23] = as §1; design: species or system Homo sapiens
[24] = target: Tyrosine-protein kinase SYK (Homo sapiens) (UniProt P43405); test: Syk Kinase panel; details: Compound concentration 1.0 uM
[25] = target: Casein kinase I isoform gamma-1 (Homo sapiens) (UniProt Q9HCP0); test: CK1_gamma1 Kinase panel; details: Compound concentration 1.0 uM
[26] = target: Muscarinic acetylcholine receptor M2 (Homo sapiens) (UniProt P08172); details: Compound concentration 10.0 uM
[27] = target: SRSF protein kinase 3 (Homo sapiens) (UniProt Q9UPE1); test: MSSK1 Kinase panel; details: Compound concentration 1.0 uM
[28] = target: Serine/threonine-protein kinase B-raf (Homo sapiens) (UniProt P15056); test: B-Raf Kinase panel; details: Compound concentration 1.0 uM
[29] = target: Inhibitor of nuclear factor kappa-B kinase subunit alpha (Homo sapiens) (UniProt O15111); test: IKK_alpha Kinase panel; details: Compound concentration 1.0 uM
[30] = target: Mu-type opioid receptor (Homo sapiens) (UniProt P35372); details: Compound concentration 10.0 uM
[31] = target: cAMP-dependent protein kinase catalytic subunit PRKX (Homo sapiens) (UniProt P51817); test: PrKX Kinase panel; details: Compound concentration 1.0 uM
[32] = target: High affinity nerve growth factor receptor (Homo sapiens, UniProt P04629); test: NanoBRET assay (NTRK1v2, SGC Frankfurt)
[33] = target: Dual specificity tyrosine-phosphorylation-regulated kinase 3 (Homo sapiens) (UniProt O43781); test: DYRK3 Kinase panel; details: Compound concentration 1.0 uM
[34] = target: 5-hydroxytryptamine receptor 1A (Homo sapiens) (UniProt P08908); details: Compound concentration 10.0 uM
[35] = target: Serine/threonine-protein kinase PAK 1 (Homo sapiens) (UniProt Q13153); test: PAK1 Kinase panel; details: Compound concentration 1.0 uM
[36] = target: Calcium/calmodulin-dependent protein kinase kinase 2 (Homo sapiens) (UniProt Q96RR4); test: CAMKK2 Kinase panel; details: Compound concentration 1.0 uM
[37] = target: Kappa-type opioid receptor (Homo sapiens) (UniProt P41145); details: Compound concentration 10.0 uM
[38] = target: Protein-tyrosine kinase 6 (Homo sapiens) (UniProt Q13882); test: Brk Kinase panel; details: Compound concentration 1.0 uM
[39] = target: Focal adhesion kinase 1 (Homo sapiens) (UniProt Q05397); test: FAK Kinase panel; details: Compound concentration 1.0 uM
[40] = target: Mitogen-activated protein kinase 14 (Homo sapiens) (UniProt Q16539); test: p38_alpha(direct) Kinase panel; details: Compound concentration 1.0 uM
[41] = target: Serine/threonine-protein kinase Nek9 (Homo sapiens) (UniProt Q8TD19); test: NEK9 Kinase panel; details: Compound concentration 1.0 uM
[42] = target: Receptor-type tyrosine-protein kinase FLT3 (Homo sapiens) (UniProt P36888); test: Flt3 Kinase panel; details: Compound concentration 1.0 uM
[43] = target: Ribosomal protein S6 kinase alpha-1 (Homo sapiens) (UniProt Q15418); test: RSK1 Kinase panel; details: Compound concentration 1.0 uM
[44] = target: Inhibitor of nuclear factor kappa-B kinase subunit beta (Homo sapiens) (UniProt O14920); test: IKK_beta Kinase panel; details: Compound concentration 1.0 uM
[45] = target: Histamine H2 receptor (Homo sapiens) (UniProt P25021); details: Compound concentration 10.0 uM
[46] = target: Histamine H4 receptor (Homo sapiens) (UniProt Q9H3N8); details: Compound concentration 10.0 uM
[47] = target: Calcium/calmodulin-dependent protein kinase type IV (Homo sapiens) (UniProt Q16566); test: CamKIV Kinase panel; details: Compound concentration 1.0 uM
[48] = target: Tyrosine-protein kinase BTK (Homo sapiens) (UniProt Q06187); test: BTK Kinase panel; details: Compound concentration 1.0 uM
[49] = target: Serine/threonine-protein kinase DCLK2 (Homo sapiens) (UniProt Q8N568); test: DCAMKL2 Kinase panel; details: Compound concentration 1.0 uM
[50] = target: 5-hydroxytryptamine receptor 2B (Homo sapiens, UniProt P41595); test: GPCRScan assay: inhibition of 5-HT2B; design: radioligand conc. used [nm] 1.0 – 2.0, parental cells stable HEK
[51] = target: G protein-coupled receptor kinase 5 (Homo sapiens) (UniProt P34947); test: GRK5 Kinase panel; details: Compound concentration 1.0 uM
[52] = target: Beta-2 adrenergic receptor (Homo sapiens) (UniProt P07550); details: Compound concentration 10.0 uM
[53] = target: Dual specificity tyrosine-phosphorylation-regulated kinase 4 (Homo sapiens) (UniProt Q9NR20); test: DYRK4 Kinase panel; details: Compound concentration 1.0 uM
[54] = target: Serine/threonine-protein kinase D1 (Homo sapiens) (UniProt Q15139); test: PKD1 Kinase panel; details: Compound concentration 1.0 uM

Muscarinic acetylcholine receptor M2 (Homo sapiens), sequence (P08172 whole entry): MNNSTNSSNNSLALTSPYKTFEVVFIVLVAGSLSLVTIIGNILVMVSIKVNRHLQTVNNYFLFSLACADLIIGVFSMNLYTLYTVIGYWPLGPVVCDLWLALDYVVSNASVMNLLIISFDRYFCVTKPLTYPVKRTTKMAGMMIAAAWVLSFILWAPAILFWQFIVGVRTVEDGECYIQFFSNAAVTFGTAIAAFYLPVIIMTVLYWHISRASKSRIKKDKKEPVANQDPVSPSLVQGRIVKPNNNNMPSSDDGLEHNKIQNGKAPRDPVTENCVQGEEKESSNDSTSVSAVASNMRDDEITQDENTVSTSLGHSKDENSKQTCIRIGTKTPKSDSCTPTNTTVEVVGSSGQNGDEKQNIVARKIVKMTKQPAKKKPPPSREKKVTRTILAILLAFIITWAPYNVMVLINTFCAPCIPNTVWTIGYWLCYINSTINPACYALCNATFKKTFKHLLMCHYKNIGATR
Mitogen-activated protein kinase 11 (Homo sapiens), sequence (Q15759 whole entry): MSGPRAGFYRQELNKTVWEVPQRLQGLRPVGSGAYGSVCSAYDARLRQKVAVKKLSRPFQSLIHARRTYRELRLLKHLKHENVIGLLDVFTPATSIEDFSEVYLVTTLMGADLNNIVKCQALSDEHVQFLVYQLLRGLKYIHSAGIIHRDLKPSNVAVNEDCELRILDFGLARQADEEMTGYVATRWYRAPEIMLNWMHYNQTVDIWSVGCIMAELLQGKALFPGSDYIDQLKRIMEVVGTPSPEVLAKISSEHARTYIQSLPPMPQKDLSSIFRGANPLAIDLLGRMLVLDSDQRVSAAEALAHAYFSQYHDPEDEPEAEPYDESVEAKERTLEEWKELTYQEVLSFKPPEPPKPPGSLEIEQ
Leucine-rich repeat serine/threonine-protein kinase 2 (Homo sapiens), sequence (Q5S007 whole entry): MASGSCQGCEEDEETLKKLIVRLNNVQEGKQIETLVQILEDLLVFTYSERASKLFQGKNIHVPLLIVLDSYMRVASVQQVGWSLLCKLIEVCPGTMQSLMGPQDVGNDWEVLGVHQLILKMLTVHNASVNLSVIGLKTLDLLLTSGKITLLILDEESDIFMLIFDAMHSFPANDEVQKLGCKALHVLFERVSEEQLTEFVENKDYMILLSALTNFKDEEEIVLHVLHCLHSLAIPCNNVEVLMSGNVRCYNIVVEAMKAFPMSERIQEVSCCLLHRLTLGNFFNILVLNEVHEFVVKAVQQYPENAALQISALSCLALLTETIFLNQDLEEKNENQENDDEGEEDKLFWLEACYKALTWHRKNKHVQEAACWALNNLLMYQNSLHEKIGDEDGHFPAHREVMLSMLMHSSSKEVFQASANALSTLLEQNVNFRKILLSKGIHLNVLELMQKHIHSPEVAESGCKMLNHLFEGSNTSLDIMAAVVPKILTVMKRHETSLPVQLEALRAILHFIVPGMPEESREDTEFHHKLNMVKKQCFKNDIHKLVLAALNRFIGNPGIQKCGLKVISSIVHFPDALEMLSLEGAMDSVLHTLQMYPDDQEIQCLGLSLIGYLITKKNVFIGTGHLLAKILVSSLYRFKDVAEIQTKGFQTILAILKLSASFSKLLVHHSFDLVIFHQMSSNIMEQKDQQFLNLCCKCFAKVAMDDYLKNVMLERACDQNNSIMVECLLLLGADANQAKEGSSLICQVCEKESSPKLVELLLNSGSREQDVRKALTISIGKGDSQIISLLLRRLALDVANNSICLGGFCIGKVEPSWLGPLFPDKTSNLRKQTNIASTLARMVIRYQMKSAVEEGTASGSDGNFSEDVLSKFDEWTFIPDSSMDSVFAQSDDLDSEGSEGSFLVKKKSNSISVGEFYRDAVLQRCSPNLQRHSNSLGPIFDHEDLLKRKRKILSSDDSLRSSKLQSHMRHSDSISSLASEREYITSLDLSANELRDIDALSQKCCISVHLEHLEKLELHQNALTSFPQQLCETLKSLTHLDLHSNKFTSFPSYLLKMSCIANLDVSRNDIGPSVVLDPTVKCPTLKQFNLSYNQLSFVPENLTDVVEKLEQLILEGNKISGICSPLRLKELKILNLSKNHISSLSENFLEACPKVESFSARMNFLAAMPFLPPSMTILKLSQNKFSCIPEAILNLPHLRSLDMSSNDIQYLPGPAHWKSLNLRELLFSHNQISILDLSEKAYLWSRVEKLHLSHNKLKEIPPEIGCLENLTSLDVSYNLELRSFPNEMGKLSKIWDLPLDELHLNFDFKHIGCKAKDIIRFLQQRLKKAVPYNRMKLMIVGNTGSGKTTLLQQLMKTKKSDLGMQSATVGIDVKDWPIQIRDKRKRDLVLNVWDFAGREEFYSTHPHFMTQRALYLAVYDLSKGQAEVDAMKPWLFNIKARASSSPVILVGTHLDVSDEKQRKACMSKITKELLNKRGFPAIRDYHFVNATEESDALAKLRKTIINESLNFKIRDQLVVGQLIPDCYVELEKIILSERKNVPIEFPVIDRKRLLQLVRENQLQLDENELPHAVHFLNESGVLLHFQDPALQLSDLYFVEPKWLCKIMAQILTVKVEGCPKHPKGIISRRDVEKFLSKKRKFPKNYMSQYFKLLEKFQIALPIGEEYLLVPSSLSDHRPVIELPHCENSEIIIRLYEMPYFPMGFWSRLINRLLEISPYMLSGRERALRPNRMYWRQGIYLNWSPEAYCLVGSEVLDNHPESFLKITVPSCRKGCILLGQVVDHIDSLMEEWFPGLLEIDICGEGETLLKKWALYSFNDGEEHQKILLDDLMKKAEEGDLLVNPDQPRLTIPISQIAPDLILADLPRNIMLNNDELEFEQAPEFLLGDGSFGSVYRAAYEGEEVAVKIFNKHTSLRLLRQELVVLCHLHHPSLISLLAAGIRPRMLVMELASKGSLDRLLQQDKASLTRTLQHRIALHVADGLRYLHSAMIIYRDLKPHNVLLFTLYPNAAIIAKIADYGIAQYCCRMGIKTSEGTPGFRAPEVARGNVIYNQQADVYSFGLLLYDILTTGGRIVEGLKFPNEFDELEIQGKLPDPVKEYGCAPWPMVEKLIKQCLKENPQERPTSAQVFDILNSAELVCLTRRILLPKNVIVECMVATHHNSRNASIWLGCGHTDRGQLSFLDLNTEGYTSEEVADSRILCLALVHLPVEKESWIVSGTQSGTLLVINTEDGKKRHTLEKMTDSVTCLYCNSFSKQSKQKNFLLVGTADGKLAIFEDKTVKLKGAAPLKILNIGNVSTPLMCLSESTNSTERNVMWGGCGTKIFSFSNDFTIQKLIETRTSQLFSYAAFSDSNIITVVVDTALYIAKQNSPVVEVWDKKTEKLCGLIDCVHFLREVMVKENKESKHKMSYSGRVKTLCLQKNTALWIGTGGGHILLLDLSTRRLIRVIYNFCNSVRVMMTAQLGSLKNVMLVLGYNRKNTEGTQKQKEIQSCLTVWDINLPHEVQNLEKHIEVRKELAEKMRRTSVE
Focal adhesion kinase 1 (Homo sapiens), sequence (Q05397 2-1052 limits assumed): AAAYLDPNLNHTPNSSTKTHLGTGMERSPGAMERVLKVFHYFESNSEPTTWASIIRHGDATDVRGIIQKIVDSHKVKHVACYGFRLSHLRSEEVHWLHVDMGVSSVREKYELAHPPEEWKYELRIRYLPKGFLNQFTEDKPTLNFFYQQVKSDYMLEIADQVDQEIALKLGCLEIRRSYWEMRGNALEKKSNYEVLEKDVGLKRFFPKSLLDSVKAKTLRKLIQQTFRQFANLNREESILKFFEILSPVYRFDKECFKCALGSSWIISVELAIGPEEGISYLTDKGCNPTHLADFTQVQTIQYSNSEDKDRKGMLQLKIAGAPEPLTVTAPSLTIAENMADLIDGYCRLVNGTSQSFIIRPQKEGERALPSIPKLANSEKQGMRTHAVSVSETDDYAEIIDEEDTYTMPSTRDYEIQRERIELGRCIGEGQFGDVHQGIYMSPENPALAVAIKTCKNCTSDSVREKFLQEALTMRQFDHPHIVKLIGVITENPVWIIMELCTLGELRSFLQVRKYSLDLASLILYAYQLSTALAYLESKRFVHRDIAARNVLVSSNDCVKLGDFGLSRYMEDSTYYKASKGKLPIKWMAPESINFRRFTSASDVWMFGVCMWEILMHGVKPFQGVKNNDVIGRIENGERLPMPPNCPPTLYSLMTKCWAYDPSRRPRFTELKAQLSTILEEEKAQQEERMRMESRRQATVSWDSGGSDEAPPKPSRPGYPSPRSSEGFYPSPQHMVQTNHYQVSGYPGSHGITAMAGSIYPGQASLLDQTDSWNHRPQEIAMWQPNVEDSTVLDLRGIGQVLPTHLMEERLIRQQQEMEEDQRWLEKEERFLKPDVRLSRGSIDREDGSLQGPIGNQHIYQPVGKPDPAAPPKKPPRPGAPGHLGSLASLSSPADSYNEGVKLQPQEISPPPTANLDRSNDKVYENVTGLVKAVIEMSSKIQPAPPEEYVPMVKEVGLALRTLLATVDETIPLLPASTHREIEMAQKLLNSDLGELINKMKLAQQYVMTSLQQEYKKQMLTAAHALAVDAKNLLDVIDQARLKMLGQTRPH
G protein-coupled receptor kinase 5 (Homo sapiens), sequence (P34947 whole entry, looked up): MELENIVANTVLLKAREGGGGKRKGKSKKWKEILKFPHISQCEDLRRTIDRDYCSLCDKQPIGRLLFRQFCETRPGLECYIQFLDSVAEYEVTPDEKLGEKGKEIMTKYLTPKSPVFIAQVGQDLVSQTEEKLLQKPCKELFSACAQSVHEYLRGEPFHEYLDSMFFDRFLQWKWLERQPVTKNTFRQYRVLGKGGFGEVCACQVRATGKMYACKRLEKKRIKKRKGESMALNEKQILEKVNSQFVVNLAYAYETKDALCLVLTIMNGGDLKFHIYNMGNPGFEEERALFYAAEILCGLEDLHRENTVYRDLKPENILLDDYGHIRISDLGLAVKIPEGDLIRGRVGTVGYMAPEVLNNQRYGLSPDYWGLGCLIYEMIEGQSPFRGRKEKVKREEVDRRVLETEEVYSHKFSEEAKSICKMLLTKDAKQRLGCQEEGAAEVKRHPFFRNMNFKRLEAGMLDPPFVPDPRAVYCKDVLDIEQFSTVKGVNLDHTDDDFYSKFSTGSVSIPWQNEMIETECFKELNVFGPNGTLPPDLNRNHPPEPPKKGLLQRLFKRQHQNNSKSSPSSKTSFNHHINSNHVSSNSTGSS

CC(C)(O)[C@H](F)CN1Cc2cc(NC(=O)c3cnn4cccnc34)c(N3CCOCC3)cc2C1=O
inhibition [1]: 1.48% | inhibition [2]: 36.5% | inhibition [3]: -0% | inhibition [4]: -0.5% | inhibition [5]: 4% | inhibition [6]: 64.3% | inhibition [7]: -0.98% | inhibition [8]: 12.5% | inhibition [9]: 12.5% | inhibition [10]: 23.5% | inhibition [11]: 0.5% | inhibition [12]: 4% | inhibition [13]: 86% | inhibition [14]: 5.5% | inhibition [15]: 4% | inhibition [16]: -2% | inhibition [17]: 91.4% | inhibition [18]: 34.5% | inhibition [19]: -7.43% | inhibition [20]: 20% | IC50 [21]: 680 nM | inhibition ([21]; Compound concentration 1.0 uM): 86.3% | inhibition [22]: 74.5% | IC50 [23]: 966 nM | inhibition [24]: 9% | inhibition [25]: -3.5% | inhibition [26]: -9.33% | inhibition [27]: 2.5% | inhibition [28]: -0.5% | inhibition [29]: 8.5% | inhibition [30]: 6.2% | inhibition [31]: -2.5% | EC50 [32]: 11000 nM (not active) | inhibition [33]: 2% | inhibition [34]: -2.64% | inhibition [35]: 9% | inhibition [36]: 8.5% | inhibition [37]: -0.13% | inhibition [38]: 10.5% | inhibition [39]: 19.5% | inhibition [40]: 4% | inhibition [41]: -2.5% | inhibition [42]: 90.8% | inhibition [43]: 7.5% | inhibition [44]: 1.5% | inhibition [45]: -2.71% | inhibition [46]: 19.5% | inhibition [47]: -6% | inhibition [48]: 42% | inhibition [49]: 0.5% | Ki [50]: 509 nM | inhibition [51]: -2% | inhibition [52]: 3.53% | inhibition [53]: -5% | inhibition [54]: 7.5%
